Experimental findings from BindingDB's records for doi:10.1016/j.bmcl.2015.11.098 (Janssen Pharmaceutica, 2016) are described below.

The assay addresses Metabotropic glutamate receptor 5 (Homo sapiens, UniProt P41594). As to the kind of experiment: Positive allosteric modulation of human mGlu5 expressed in HEK293 cells assessed as glutamate-induced calcium mobilization.

Chain of Metabotropic glutamate receptor 5 (P41594 whole entry): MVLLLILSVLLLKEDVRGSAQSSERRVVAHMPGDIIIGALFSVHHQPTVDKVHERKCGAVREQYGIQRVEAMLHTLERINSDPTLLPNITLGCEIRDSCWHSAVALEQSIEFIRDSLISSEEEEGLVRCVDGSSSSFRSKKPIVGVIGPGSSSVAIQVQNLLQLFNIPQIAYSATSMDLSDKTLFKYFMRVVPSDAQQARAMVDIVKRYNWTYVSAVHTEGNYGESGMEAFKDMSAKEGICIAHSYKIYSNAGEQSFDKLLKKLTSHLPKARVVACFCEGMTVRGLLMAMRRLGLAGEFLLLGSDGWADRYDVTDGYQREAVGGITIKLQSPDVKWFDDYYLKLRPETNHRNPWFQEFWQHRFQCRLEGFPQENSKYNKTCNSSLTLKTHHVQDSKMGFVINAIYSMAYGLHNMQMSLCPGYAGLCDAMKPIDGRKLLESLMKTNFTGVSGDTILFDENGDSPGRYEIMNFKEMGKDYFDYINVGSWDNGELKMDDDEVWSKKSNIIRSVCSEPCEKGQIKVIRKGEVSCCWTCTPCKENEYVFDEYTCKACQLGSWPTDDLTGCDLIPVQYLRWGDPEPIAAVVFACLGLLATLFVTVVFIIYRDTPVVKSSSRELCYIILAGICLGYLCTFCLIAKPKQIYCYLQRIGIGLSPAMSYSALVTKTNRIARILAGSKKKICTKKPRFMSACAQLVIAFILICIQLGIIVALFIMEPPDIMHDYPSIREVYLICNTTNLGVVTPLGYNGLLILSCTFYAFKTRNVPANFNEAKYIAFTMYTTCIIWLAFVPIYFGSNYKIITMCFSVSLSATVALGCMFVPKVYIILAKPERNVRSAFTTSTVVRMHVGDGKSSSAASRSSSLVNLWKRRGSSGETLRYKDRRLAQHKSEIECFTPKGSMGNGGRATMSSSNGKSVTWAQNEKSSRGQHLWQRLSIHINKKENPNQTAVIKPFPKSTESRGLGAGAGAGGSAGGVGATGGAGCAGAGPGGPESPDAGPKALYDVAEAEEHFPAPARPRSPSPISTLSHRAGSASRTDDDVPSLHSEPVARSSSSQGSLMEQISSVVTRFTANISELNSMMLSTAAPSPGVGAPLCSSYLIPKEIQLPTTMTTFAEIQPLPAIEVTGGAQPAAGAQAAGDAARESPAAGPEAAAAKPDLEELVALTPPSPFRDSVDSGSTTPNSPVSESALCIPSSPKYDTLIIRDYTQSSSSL

Take `O=C1c2nc(COc3ccccc3)nn2CCN1c1ccc(F)cc1`: the EC50 is 2810 nM.
